Where a SMILES comes first, the peptide text is derived from it. [ ]: non-standard residue; d: D form. ξ: configuration not given here. Arg(NO2) = N=C(NCCC[C@H](N)C(=O)O)N[N+](=O)[O-]; αMePhe(2,6-F2) = C[C@](N)(Cc1c(F)cccc1F)C(=O)O; ξαMePhe(2,6-F2) = CC(N)(Cc1c(F)cccc1F)C(=O)O; αMePhe(2-F) = C[C@](N)(Cc1ccccc1F)C(=O)O; ξαMePhe(2-F) = CC(N)(Cc1ccccc1F)C(=O)O; hArg = N=C(N)NCCCC[C@H](N)C(=O)O; Cit = NC(=O)NCCC[C@H](N)C(=O)O; Nle = CCCC[C@H](N)C(=O)O; Orn = NCCC[C@H](N)C(=O)O; Ac5c = NC1(C(=O)O)CCCC1; Aib = CC(C)(N)C(=O)O
Legend:
Format in all cases: in vitro ADME
[1] = Stability of peptides in human liver microsomes; conditions: human, microsomes; for % degradation of peptides in 24 h when incubated with liver microsomes: 2 μM, pH 7.8
Procedure, shortened: (§1)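 Peptides at 2 μM final incubated 0–24 h at 37 °C (50 mM triethanolamine-HCl, pH 7.8) in each matrix, matrix level set to degrade ~50% PTH(1-34) in 1 h; TFA-quenched, C18 HPLC at 206 nm with ESI-MS peak identification; percent degradation from peak areas at each time point.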

[2] = Stability of peptides in human plasma; conditions: human, plasma; for metabolised at 24 h, 2 μM: pH 7.8
Procedure, shortened: as §1

[3] = Stability of peptides in simulated intestinal fluid (pH 7.5); conditions: pH 7.5; for half-life (t1/2) in simulated intestinal fluid / half-life: simulated gi fluid; for % degradation of peptides in 24 h when incubated with simulated intestinal fluid: 2 μM
Procedure, shortened: as §1

[4] = Stability of peptides in simulated gastric fluid (pH 1.5; HCl, NaCl and Pepsin); conditions: pH 1.5; for % degradation of peptides in 24 h when incubated with simulated gastric fluid: 2 μM; for half-life (t1/2) in simulated gastric fluid / half-life: simulated gi fluid

half-life [1] | % degradation of peptides in 24 h when incubated with liver microsomes [1] | half-life [2] | metabolised at 24 h, 2 μM [2] | half-life (t1/2) in simulated intestinal fluid [3] | % degradation of peptides in 24 h when incubated with simulated intestinal fluid [3] | % degradation of peptides in 24 h when incubated with simulated gastric fluid [4] | half-life (t1/2) in simulated gastric fluid [4] | half-life (t1/2) in human plasma [2] | half-life [3] | half-life [4] | SMILES
60 min | 78% | 480 min | 71% | (6) h | 40% | 14% | (8) h | – | – | – | CCCC[C@H](NC(=O)C(C)(Cc1c(F)cccc1F)NC(=O)[C@H](CCC(N)=O)NC(=O)[C@@H](NC(=O)[C@H](CCC(=O)O)NC(=O)C(C)(C)NC(=O)[C@@H](NC(=O)C1(N)CCCC1)C(C)C)[C@@H](C)CC)C(=O)N[C@@H](Cc1c[nH]cn1)C(=O)N[C@@H](CCC(N)=O)C(=O)N[C@@H](CCCCNC(=N)N)C(=O)NC(C)(C)C(=O)NC(C)(Cc1c(F)cccc1F)C(=O)NC(C)(Cc1c(F)cccc1F)C(N)=O (some centres unmarked) [Seq. ID. 240] (H-[Ac5c]V[Aib]EIQ[ξαMePhe(2,6-F2)][Nle]HQ[hArg][Aib][ξαMePhe(2,6-F2)][ξαMePhe(2,6-F2)]-NH2)
60 min | 80% | 480 min | 78% | (6) h | 43% | 14% | (8) h | – | – | – | CCCC[C@H](NC(=O)C(C)(Cc1ccccc1F)NC(=O)[C@H](CCC(N)=O)NC(=O)[C@@H](NC(=O)[C@H](CCC(=O)O)NC(=O)C(C)(C)NC(=O)[C@@H](NC(=O)C1(N)CCCC1)C(C)C)[C@@H](C)CC)C(=O)N[C@@H](Cc1c[nH]cn1)C(=O)N[C@@H](CCC(N)=O)C(=O)N[C@@H](CCCCNC(=N)N)C(=O)NC(C)(C)C(=O)N[C@@H](CCCNC(=N)N[N+](=O)[O-])C(=O)NC(C)(Cc1ccccc1F)C(N)=O (some centres unmarked) [Seq. ID. 250] (H-[Ac5c]V[Aib]EIQ[ξαMePhe(2-F)][Nle]HQ[hArg][Aib][Arg(NO2)][ξαMePhe(2-F)]-NH2)
60 min | 77% | 480 min | 70% | (6) h | 41% | 15% | (8) h | – | – | – | CCCC[C@H](NC(=O)C(C)(Cc1c(F)cccc1F)NC(=O)[C@H](CCC(N)=O)NC(=O)[C@@H](NC(=O)[C@H](CCC(=O)O)NC(=O)C(C)(C)NC(=O)[C@@H](NC(=O)C1(N)CCCC1)C(C)C)[C@@H](C)CC)C(=O)N[C@@H](Cc1c[nH]cn1)C(=O)N[C@@H](CCC(N)=O)C(=O)N[C@@H](CCCCNC(=N)N)C(=O)NC(C)(C)C(=O)N[C@@H](CCCNC(=N)N[N+](=O)[O-])C(=O)NC(C)(Cc1ccccc1F)C(N)=O (some centres unmarked) [Seq. ID. 260] (H-[Ac5c]V[Aib]EIQ[ξαMePhe(2,6-F2)][Nle]HQ[hArg][Aib][Arg(NO2)][ξαMePhe(2-F)]-NH2)
30 min | 100% | – | 78% | – | 100% | 100% | – | (9) h | 30 min | 30 min | CCCC[C@H](NC(=O)C(C)(Cc1ccccc1F)NC(=O)[C@H](CCC(N)=O)NC(=O)[C@@H](NC(=O)[C@H](CCC(=O)O)NC(=O)C(C)(C)NC(=O)[C@@H](NC(=O)C1(N)CCCC1)C(C)C)[C@@H](C)CC)C(=O)N[C@@H](Cc1c[nH]cn1)C(=O)N[C@@H](CCC(N)=O)C(=O)N[C@@H](CCCCNC(=N)N)C(=O)NC(C)(C)C(=O)N[C@@H](CCCNC(=N)N[N+](=O)[O-])C(=O)NC(C)(Cc1c(F)cccc1F)C(N)=O (some centres unmarked) [Seq. ID. 270] (H-[Ac5c]V[Aib]EIQ[ξαMePhe(2-F)][Nle]HQ[hArg][Aib][Arg(NO2)][ξαMePhe(2,6-F2)]-NH2)
30 min | 100% | – | 75% | – | 100% | 100% | – | (9) h | 30 min | 30 min | CCCC[C@H](NC(=O)C(C)(Cc1ccccc1F)NC(=O)[C@H](CCC(N)=O)NC(=O)[C@@H](NC(=O)[C@H](CCC(=O)O)NC(=O)C(C)(C)NC(=O)[C@@H](NC(=O)C(C)(C)N)C(C)C)[C@@H](C)CC)C(=O)N[C@@H](Cc1c[nH]cn1)C(=O)N[C@@H](CCC(N)=O)C(=O)N[C@@H](CCCN)C(=O)NC(C)(C)C(=O)N[C@@H](CCCNC(N)=O)C(=O)NC(C)(Cc1c(F)cccc1F)C(N)=O (some centres unmarked) [Seq. ID. 290] (H-[Aib]V[Aib]EIQ[ξαMePhe(2-F)][Nle]HQ[Orn][Aib][Cit][ξαMePhe(2,6-F2)]-NH2)
30 min | 100% | – | 71% | – | 100% | 100% | – | (9) h | 30 min | 30 min | CCCC[C@H](NC(=O)C(C)(Cc1ccccc1F)NC(=O)[C@H](CCC(N)=O)NC(=O)[C@@H](NC(=O)[C@H](CCC(=O)O)NC(=O)C(C)(C)NC(=O)[C@@H](NC(=O)C1(N)CCCC1)C(C)C)[C@@H](C)CC)C(=O)N[C@@H](Cc1c[nH]cn1)C(=O)N[C@@H](CCC(N)=O)C(=O)N[C@@H](CCCN)C(=O)N[C@@H](C)C(=O)NC(C)(Cc1c(F)cccc1F)C(=O)NC(C)(Cc1ccccc1F)C(N)=O (some centres unmarked) [Seq. ID. 315] (H-[Ac5c]V[Aib]EIQ[ξαMePhe(2-F)][Nle]HQ[Orn]A[ξαMePhe(2,6-F2)][ξαMePhe(2-F)]-NH2)
30 min | 100% | – | 70% | – | 100% | 100% | – | (9) h | 30 min | 30 min | CCCC[C@H](NC(=O)[C@](C)(Cc1ccccc1F)NC(=O)[C@H](CCC(N)=O)NC(=O)[C@@H](NC(=O)[C@H](CCC(=O)O)NC(=O)C(C)(C)NC(=O)[C@@H](NC(=O)C(C)(C)N)C(C)C)[C@@H](C)CC)C(=O)N[C@@H](Cc1c[nH]cn1)C(=O)N[C@@H](CCC(N)=O)C(=O)N[C@@H](CCCN)C(=O)N[C@@H](C)C(=O)N[C@@H](CCCNC(=N)N[N+](=O)[O-])C(=O)N[C@@](C)(Cc1ccccc1F)C(N)=O [Seq. ID. 329] (H-[Aib]V[Aib]EIQ[αMePhe(2-F)][Nle]HQ[Orn]A[Arg(NO2)][αMePhe(2-F)]-NH2)
30 min | 100% | – | 70% | – | 100% | 100% | – | (9) h | 30 min | 30 min | CCCC[C@H](NC(=O)C(C)(Cc1ccccc1F)NC(=O)[C@H](CCC(N)=O)NC(=O)[C@@H](NC(=O)[C@H](CCC(=O)O)NC(=O)C(C)(C)NC(=O)[C@@H](NC(=O)C(C)(C)N)C(C)C)[C@@H](C)CC)C(=O)N[C@@H](Cc1c[nH]cn1)C(=O)N[C@@H](CCC(N)=O)C(=O)N[C@@H](CCCNC(N)=O)C(=O)N[C@@H](C)C(=O)N[C@@H](CCCNC(N)=O)C(=O)NC(C)(Cc1ccccc1F)C(N)=O (some centres unmarked) [Seq. ID. 345] (H-[Aib]V[Aib]EIQ[ξαMePhe(2-F)][Nle]HQ[Cit]A[Cit][ξαMePhe(2-F)]-NH2)
120 min | 86% | > 1440 min | 0% | – | 00% | 50% | – | – | > 1440 min | 240 min | CCCC[C@H](NC(=O)C(C)(Cc1ccccc1F)NC(=O)[C@H](CCC(N)=O)NC(=O)[C@@H](NC(=O)[C@H](CCC(=O)O)NC(=O)C(C)(C)NC(=O)[C@@H](NC(=O)C1(N)CCCC1)C(C)C)[C@@H](C)CC)C(=O)N[C@@H](Cc1c[nH]cn1)C(=O)N[C@@H](CCC(N)=O)C(=O)N[C@@H](CCCNC(N)=O)C(=O)NC(C)(C)C(=O)NC(C)(Cc1c(F)cccc1F)C(=O)NC(C)(Cc1ccccc1F)C(N)=O (some centres unmarked) [Seq. ID. 380] (H-[Ac5c]V[Aib]EIQ[ξαMePhe(2-F)][Nle]HQ[Cit][Aib][ξαMePhe(2,6-F2)][ξαMePhe(2-F)]-NH2)
120 min | 84% | > 1440 min | 0% | – | 00% | 55% | – | – | > 1440 min | 240 min | CCCC[C@H](NC(=O)[C@](C)(Cc1c(F)cccc1F)NC(=O)[C@H](CCC(N)=O)NC(=O)[C@@H](NC(=O)[C@H](CCC(=O)O)NC(=O)C(C)(C)NC(=O)[C@@H](NC(=O)C(C)(C)N)C(C)C)[C@@H](C)CC)C(=O)N[C@@H](Cc1c[nH]cn1)C(=O)N[C@@H](CCC(N)=O)C(=O)N[C@@H](CCCNC(N)=O)C(=O)NC(C)(C)C(=O)N[C@@](C)(Cc1c(F)cccc1F)C(=O)N[C@@](C)(Cc1c(F)cccc1F)C(N)=O [Seq. ID. 390] (H-[Aib]V[Aib]EIQ[αMePhe(2,6-F2)][Nle]HQ[Cit][Aib][αMePhe(2,6-F2)][αMePhe(2,6-F2)]-NH2)

Source: patent US8383581B2, “Short-chain peptides as parathyroid hormone (PTH) receptor agonist” (Cadila Healthcare Limited, priority 2009, dated 2013)
